According to publication PMC11288129, “Diversely evolved xibalbin variants from remipede venom inhibit potassium channels and activate PKA-II and Erk1/2 signaling” (BMC Biology, 2024):
Positions of bridges follow the written chain, without caps; N, C: chain ends. No end group written: not given here.

Experiments:
Settings in all cases: 1 µM
[1] = tested on: hKv2.1; test: TEVC inhibition, Kv2.1; format: cell-based, human; design: unit not given here
Description: (§1) For the expression of Kv channels rat Kv1.1 (GenBank accession number: NM_173095 [88, 89]), rKv1.2 (NM_012970 [90, 91]), human Kv1.3 (NM_002232 [92, 93]), rKv1.4 (NM_012971 [94, 95]), rKv1.6 (NM_023954 [96, 97]), hKv2.1 (NM_004975 [98, 99]), hKv3.1 (NM_004976 [100, 101]), rKv4.2 (NM_031739 [102, 103]), hKv10.1 (NM_172362 [104, 105]), hERG1 [Kv11.1, (NM_000238 [106, 107])], and Shaker IR [from Drosophila melanogaster, (NM_167595 [108, 109])], Nav channels [rNav1.2 (NM_012647 [42, 110]), rNav1.4 (NM_013178 [111, 112]), hNav1.5 (NM_198056 [113, 114]), mNav1.6 (NM_001077499 [115, 116]), BgNav [from Blattella germanica, (DQ466887 [117, 118])] and the auxiliary subunits rβ1 (NM_001271045 [119, 120]), hβ1 (NM_001037 [121, 122]), and TipE [from D. melanogaster, (NM_079196 [109, 123])], and Cav channels hCav3.1 [124, 125], hCav3.2 [126, 127], and hCav3.3 [128, 129] in Xenopus oocytes, the linearized plasmids were transcribed using the T7 or SP6 mMESSAGEmMACHINE transcription kit (Ambion, Austin, TX, USA). Mature female animals were purchased from Nasco (Fort Atkinson, USA) and were housed in the Aquatic Facility (KU Leuven) in compliance with the regulations of the European Union (EU) concerning the welfare of laboratory animals as declared in Directive 2010/63/EU. The use of X. laevis oocytes was approved by the Animal Ethics Committee of the KU Leuven with the license number P186/2019. Stage V–VI oocytes were collected from anesthetized female X. laevis frog as previously described, with the frogs anesthetized by placement in 0.1% tricaine solution (amino benzoic acid ethyl ester; Merck, USA). Oocyte microinjection was performed using a microinjector (Drummond Scientifc®, USA), with a programmed cRNA injection volume of 4—50 nL, depending on the channel subtype. The oocytes were incubated in ND96 solution (96 mM NaCl, 2 mM KCl, 1.8 mM CaCl2, 2 mM MgCl2, and 5 mM HEPES, pH 7.4), supplemented with 50 mg/l gentamicin sulfate.
(§2) Electrophysiological measurements were performed at room temperature (18–22 °C) using the two-electrode voltage clamp (TEVC) technique. Data were obtained using a GeneClamp 500 amplifier (Axon Instruments, USA), and Clampex9 software (Axon Instruments), responsible for data acquisition and storage. Glass micropipettes were produced using glass capillaries (borosilicate WPI 1B120-6) and drawn in a WPI (World Precision Instruments, USA) manual stretcher. The bath and perfusion solutions were either the previously described ND96 (Nav and Kv channels) or calcium-free ND96 supplemented with 10 mM BaCl2 (Cav channels).
(§3) Whole-cell currents of oocytes were recorded 1 to 3 days after injection. Current and voltage electrodes were filled with 3 M KCl and their resistance was adjusted from 0.7 to 2.0 MΩ. Currents were sampled at 20 kHz (Nav channels) and 10 kHz (Kv and Cav channels) and filtered using a four-pole Bessel low-pass Bessel filter, at 1 kHz for sodium, and […] for potassium and calcium, except for the hERG ion channel, in which the currents were filtered at 1 kHz. Leak subtraction was performed using a -P/4 protocol. Kv1.x currents were evoked by 500 ms depolarizations to 0 mV followed by a 500-ms pulse to − 50 mV, from a holding potential of − 90 mV. Kv2.1, Kv3.1, and Kv4.2 currents were elicited by 500 ms pulses to + 20 mV from a holding potential of − 90 mV. Current traces of Kv10.1 were elicited by 2 s depolarization to 0 mV, from a holding potential of − 90 mV. Current traces of hERG1 channel were elicited by applying a + 40 mV prepulse for 2 s followed by a step of − 120 mV for 2 s. Sodium current traces were evoked by a 100 ms depolarization to 0 mV, from a holding potential of − 90 mV. The current–voltage (IV) relationships were determined by 100-ms step depolarizations between − 90 and + 40 mV, using 5 mV increments. […]

[2] = tested on: rKv1.2; test: TEVC inhibition, Kv1.2; format: cell-based, rat
Description: as §1, §2, §3

[3] = tested on: hKv10.1; test: TEVC inhibition, Kv10.1; format: cell-based, human; design: unit not given here
Description: as §1, §2, §3

[4] = tested on: hCav3.2; test: TEVC inhibition, Cav3.2; format: cell-based, human; design: unit not given here
Description: as §1, §2, §3

Sequence	Inhibition data, Kv2.1 ([1]; replicate 1)	Inhibition data, Kv2.1 ([1]; replicate 2)	Inhibition data, Kv2.1 ([1]; replicate 3)	Inhibition data, Kv2.1 ([1]; replicate 4)	Inhibition data, Kv1.2 ([2]; replicate 1)	Inhibition data, Kv1.2 ([2]; replicate 2)	Inhibition data, Kv1.2 ([2]; replicate 3)	Inhibition data, Kv10.1 ([3]; replicate 1)	Inhibition data, Kv10.1 ([3]; replicate 2)	Inhibition data, Kv10.1 ([3]; replicate 3)	Inhibition data, Kv10.1 ([3]; replicate 4)	Inhibition data, Cav3.2 ([4]; replicate 1)	Inhibition data, Cav3.2 ([4]; replicate 2)	Inhibition data, Cav3.2 ([4]; replicate 3)	Inhibition data, Cav3.2 ([4]; replicate 4)	inhibition of Kv1.2 ([2]; Xenopus oocytes, ND96, 18–22 °C, mean ± SEM, n ≥ 3)	Inhibition data, Kv1.2 ([2]; replicate 4)
KRSCIRRFGRCDHRPNDCCYNSSCRCNLWGSNCRCQRMGLFQKWGK (disulfide 4-19, 11-24, 18-35, 26-33) [xib13]	0.0	0.0	0.0	0.0	58.6	71.3	77.9	0.0	0.0	0.0	0.0	0.0	0.0	0.0	0.0		
RLFCIRHHKYCGHRPKRCCSGLFCRCNTFGTNCRCQSKGALGKLI (disulfide 4-19, 11-24, 18-35, 26-33) [xib1]	0.0	0.0	0.0	0.0	52.8	47.6	48.2	0.0	0.0	0.0	0.0	0.0	0.0	0.0	0.0	50.2 ± 2.6%	46.0
